Laboratory results taken from patent US20070191227A1, “Use of basic amino acids in copper-containing fungicidal formulations” (priority 2003, published 2007).

System: Septoria tritici
Test: Growth assay with Septoria tritici as indicator fungus (photometric)
Assay type: cell-based
Settings: Zymoseptoria tritici; active ingredient concentration 1 ppm, individual active ingredient
Method: Efficacy of Formulations According to the Invention Comprising Copper and a Further Fungicidal Active Ingredient Against Septoria tritici.
A growth assay was carried out with Septoria tritici as indicator fungus. The fungal growth was measured photometrically by the increase in absorption or light scattering as a function of mycelium density. The data were converted into percent growth inhibition, the absorption of the untreated controls being defined as 0% inhibition and that of a killed spore suspension as reference as 100% inhibition.
The expected efficacies of combinations of active ingredients were determined using Colby's formula (Colby, S. R. “Calculating synergistic and antagonistic responses of herbicide combinations”, Weeds, 15, pp. 20-22, 1967) and compared with the observed efficacies.
Colby's formula: E=x+y−x·y/100 • E expected efficacy, expressed in % of the untreated control, when using the mixture of the active ingredients A and B at the concentrations a and b • x efficacy, expressed in % of the untreated control, when using the active ingredient A at the concentration a
y efficacy, expressed in % of the untreated control, when using the active ingredient B at the concentration b

COC(=O)N(OC)c1ccccc1COc1ccn(-c2ccc(Cl)cc2)n1 [II, Pyraclostrobin]
inhibition at 1 ppm: 73%
